Consider one molecule from patent publication US8338410B2, “Neuroprotective compounds and pharmaceutical compositions comprising them” (Biocodex, priority 2005, dated 2012).

Test [1] relates to rats subjected to histotoxic hypoxia induced by potassium cyanide. Nature of the test: KCN (i.v.) hypoxia in rats (survival time). The class given is in vivo, Wistar male rats. The following applies: rats, KCN 4 mg/kg i.v.
In test [2] the test system is mixed cultures of rat cortical neurones and astrocytes. Nature of the test: Density of neuritic extensions marked by anti-neurofilament antibody, with or without excess glutamate. The conditions noted are these: for density of neurofilaments: control culture medium. The class given is cell-based. The source says:
The principle of the investigation consisted of evaluating the survival of cortical neurones in co-culture with astrocytes after the application of a neurotoxic agent, excess glutamate.
Neurone survival is quantified by the density of the system of neuritic extensions marked by an anti-neurofilament antibody in the absence or presence of glutamate.
• Cell type: Initial culture of cortical neurones from 14 day rat embryos and initial culture of cortical astrocytes from newborn rats. • Culture medium: DMEM-Ham F12 (Invitrogen 21331020) • B27 2% (invitrogen 17504044) • L-glutamine 2 mM (Invitrogen 25030024) • Penicillin 50 UI/ml—Streptomycin 50 μg/ml (Invitrogen 15070063) • Nerve Growth Factor 10 ng/ml (NGF, Invitrogen 13290.010) • Survival medium: MEM (Invitrogen 21090022) • L-glutamine 2 mM (Invitrogen 25030024) • Penicillin 50 UI/ml—Streptomycin 50 μg/ml (Invitrogen 15070063) • Supplement N2 (Invitrogen 17502-048) 1.2 Prior Cytotoxicity • Platelets: 96 wells • Culture time: 8 days • Cells/well: cortical neurones+astrocytes • Product range: from 100 μM then ratio 3 • Replicates: 3 • Cell/product contact: 48 hours • Evaluation parameters: microscopic observation and MTT hydrolysis. • MTT: 3-(4,5-dimethylthiozol-2-yl)-2,5-diphenyltetrazolium bromide 1.3 Treatment and Analysis of the Network of Extensions Marked with Antineurofilament Antibody
The cortical neurones were obtained from the cortex of 14 day rat embryos cultured in platelet culture medium 96 and then in a stove at 37° C. and 5% CO2 with saturated humidity. After 2 days culture astrocytes obtained from newborn rat cortex were seeded in the wells (in a ratio of 1 astrocyte to 4 neurones). After 10 days culture the mature neurones synthesised neurofilaments (structural protein specific to mature neurones); in addition to this these neurones expressed functional receptors to glutamate on their surfaces and could therefore be intoxicated.
On the 12th day of culture the medium was replaced by survival medium with or without etifoxine in 3 concentrations and the neurones were or were not intoxicated with glutamate (Sigma G1501) at a strength of 2 mM and 10 mM. Each culture condition was applied to 4 wells. The cultures were incubated for 2 periods (6 and 24 hours).
A positive control was carried out in the survival culture medium containing Nerve Growth Factor (NGF; 10 ng/ml) and basic Fibroblast Growth Factor (FGFb; 5 ng/ml) and the cells were intoxicated under the same conditions.
At the end of the two incubation periods (6 and 24 hours) the cell layers were fixed and marked with a anti-68- and 200 kD neurofilament monoclonal antibody (DAKO M0762) and then developed using a mouse anti-immunoglobulin goat antibody conjugate Alexia fluor 488 (Interchim A-11029). Controls without primary antibody were performed. All the controls were negative (no non-specific labelling). After extensive washing with PBS the preparations were observed under epi-fluorescence (Nikon Diaphot 300 microscope).
2 images were obtained for each culture well (4 wells per experimental condition) using a Nikon DXM1200F camera controlled by LUCIA 6.0 software.
All the images were obtained under the same conditions and with identical camera settings.
The densities of the networks of extensions marked with anti-neurofilament antibody were examined using LUCIA 6.0 software. Initial image processing made it possible to increase the intensity of the specific marking on the extensions. Areas in which marking was positive were binarised and the percentage marking per image was determined (marked surface area/total surface area examined).
The results (mean values±standard error with respect to the mean (SEM) were expressed as percentage marking per microscope field (n=8 measurements/culture conditions). 2-factor analysis of variance (Etifoxine and glutamate), followed by the Student Newman-Keuls multiple comparisons test was used for statistical comparison of the results. […]

As for `CCNC1=Nc2ccc(Cl)cc2C(C)(c2ccccc2)O1.Cl` (stereo not drawn) [etifoxine, 6-chloro-2-ethylamino-4-methyl-4-phenyl-4H-[3,1]benzoxazine hydrochloride], the Percentage variation entry was “+7%” in test [1] (compound i.p. dose 30); “+90%” in test [1] (compound i.p. dose 50); “+155%” in test [1] (compound i.p. dose 75); “+7%” in test [1] (compound p.o. dose 50); “+8%” in test [1] (compound p.o. dose 100); “+15%” in test [1] (compound p.o. dose 200). In addition, the “Survival time in seconds (m ± sem)” value amounted to 60.3 ± 2.0 s in test [1] (compound i.p. dose 30); 107.3 ± 6.1 s in test [1] (compound i.p. dose 50); 144.3 ± 11.5 s in test [1] (compound i.p. dose 75); 59.5 ± 2.1 s in test [1] (compound p.o. dose 50); 60.1 ± 1.2 s in test [1] (compound p.o. dose 100); 63.9 ± 2.0 s in test [1] (compound p.o. dose 200). Moreover, the time to death result in test [1] (from 50 mg/kg i.p. and 200 mg/kg p.o.) is “significantly increased the time to death”. Further, in test [2] (control culture medium (without glutamate), 6 hours, significant at 10 μM), the “density of marked neurofilaments” value is recorded as “increased the density of marked neurofilaments in a dose-dependent way”. The density of neurofilaments result in test [2] (24 hours, 10 μM) is listed as “increased the density of neurofilaments”; in test [2] (24 hours, 1 and 3 μM) it was “without effect”. Further, the “density of neurofilaments in the presence of glutamate” value in test [2] (glutamate 2 mM, 24 hours, compound 10 μM) is “opposed the effects of 2 mM of glutamate”; in test [2] (glutamate 2 and 10 mM, 6 hours, compound 3 and 10 μM), “opposed the decrease in density of neurofilaments induced by glutamate”.
